Measurements reported in patent US20230067064A1, “METHODS AND COMPOSITIONS FOR MODULATING SPLICING” (SkyHawk Therapeutics, Inc., priority 2019, published 2023).
Like-named read-outs stand apart in the source and are kept apart here.

How the values were obtained:
[1] = tested on: cryptic exon within intron 49 of the Huntingtin (HTT) transcripts, GM04724 (CAG 70/20) Huntington's disease patient lymphoblasts; assay: Quantitative splicing assay (HTT); format: cell-based, human; details: average
Description: GM04724 (CAG 70/20) Huntington's disease patient lymphoblasts (Coriell) are plated in 96-well v-bottom plates at 50,000 cells/well. Immediately after plating, cells are dosed with compound for 24 h at concentrations ranging from 2.5 uM to 0.15 nM (0.1% DMSO). Treated cells are lysed and cDNA synthesized using the Fast Advanced Cells-to-Ct kit (Thermofisher A35378) according to the manufacturer's instructions. 2 uL of each cDNA are used in qPCR reactions to confirm the compound-induced inclusion of a cryptic exon within intron 49 of the Huntingtin (HTT) transcripts. The qPCR reactions are prepared in 384-well plates in 10 uL volume, using TaqMan™ Fast Advanced Master Mix [ThermoFisher; 4444965] with primers and probes shown in the table below. Reactions are run in a Quant Studio 6 qPCR instrument with default settings.

[2] = tested on: mHTT protein; assay: mHTT protein assay, 2B7-MW1 Mesoscale Discovery (MSD); format: cell-based, human; details: GM04724 lymphoblast cells, 48 hours, 2B7-MW1 MSD; average; read-out: HTT Potency - Protein & Cytotoxicity: EC50 mHTT (average)
Description: Compounds are tested on GM04724 (CAG 70/20) Huntington's disease patient lymphoblast cells at doses ranging from 10 μM to 0.6 nM. 4,500 cells/well are seeded in 384 well plates. One plate replica is carried out for parallel viability testing by CellTiter Glo (CTG). Compounds are incubated for 48 hours. mHTT protein levels are assessed by the 2B7-MW1 assay via Mesoscale Discovery (MSD) as previously reported (Macdonald et al., 2014). The antibody pair is comprised of previously characterized monoclonals (2B7 and MW1) interrogating two regions for HTT conformation and biological properties: the N17 domain and the polyQ domain (Baldo et al., 2012; Ko et., 2001). 2B7-MW1 is dependent on subject/animal specific levels of HTT at the time of treatment. 2B7-MW1 is dependent on polyQ expansion (e.g., the higher the expansion the higher the signal) and on mHTT size (e.g., a similar polyQ will give higher signal with smaller HTT size). The viability readout is carried out by CTG according to the manufacturer's instructions. The results are show in Table A-10.

[3] = tested on: SMN FL and SMN Δ7 mRNA, spinal muscular atrophy (SMA) patient fibroblasts (GM03813); assay: Quantitative splicing assay (SMN); format: cell-based, human; details: 24 h, average; for IC50: read-out: SMN2 Potency - Splicing: Splicing D7 IC50 (average); for EC50: read-out: SMN2 Potency - Splicing: Splicing FL EC50 (average)
Description: Spinal muscular atrophy (SMA) patient fibroblasts (GM03813, Coriell) are plated in 96-well plates at 50,000 cells/well. […] Treated cells are lysed and cDNA synthesized using the Fast Advanced Cells-to-Ct kit (Thermofisher A35378) according to the manufacturer's instructions. 2 μL of each cDNA are used in qPCR reactions. […] Reactions are run in a Quant Studio 6 qPCR instrument with default settings.

[4] = tested on: SMN protein; assay: SMN protein assay, Mesoscale Discovery (MSD); format: cell-based, human; details: SMA patient fibroblasts (GM03813), 48 hours, average, read-out: SMN2 Potency - Protein: Protein FL EC50 (average)
Description: Compounds are tested on spinal muscular atrophy (SMA) patient fibroblasts (GM03813, Coriell) at doses ranging from 2.5 μM to 0.6 nM. 7000 cells/well are seeded in 96-well plates. Compounds are incubated for 48 hours and the cells were lysed with 100 μL of lysis buffer. 20 μL of lysate is used for SMN protein measurement by Mesoscale Discovery (MSD) assay developed by PharmOptima (Michigan). A standard curve prepared with SMN protein ranging from 1 μg/ml to 19.5 pg/ml is used in each MSD plate to calculate the absolute SMN protein amount in each sample.

[5] = tested on: MDR1-MDCK cell monolayers; assay: MDCK-MDR1 permeability assay, blood-brain-barrier (BBB) penetration potential; format: in vitro ADME; details: for General MDCK-MDR1: % Recov A-B: A-B direction; for General MDCK-MDR1: % Recov B-A: B-A direction; for General MDCK-MDR1: Efflux: efflux ratio
Description: Each determination is performed in duplicate. […] Analytical conditions are outlined below.
Papp=(dCr/dt)×Vr/(A×CA) (1)

[6] = read-out: HTT Potency - Splicing: E49-50 EC50 (average)
[7] = read-out: HTT Potency - Splicing: E49b EC50 (average)

| SMILES | EC50 [1, 6] [nM] | EC50 [1, 7] [nM] | EC50 [2] [nM] | IC50 [3] [nM] | EC50 [3] [nM] | EC50 [4] [nM] | General MDCK-MDR1: % Recov A-B [5] [%] | General MDCK-MDR1: % Recov B-A [5] [%] | General MDCK-MDR1: Efflux [5] |
| --- | --- | --- | --- | --- | --- | --- | --- | --- | --- |
| C[C@]12CC[C@H](C[C@@H](Oc3ccc(-c4ccc(-n5ccnc5)cc4O)nn3)C1)N2 (single isomer, unassigned; ent1) [303-Ent1] | 16 to 50 | 16 to 50 | 0.01 to 15 | 16 to 50 | 101 to 500 | 0.01 to 15 | 90 | 90 | 40 |
| CN(c1ccc(-c2ccc(-c3cnn(C)c3)cc2O)nn1)C1CC2CCC(C)(N2)C1F (single isomer, unassigned; ent1) [317-Ent1] | 0.01 to 15 | 0.01 to 15 | 0.01 to 15 | 0.01 to 15 | 0.01 to 15 | 0.01 to 15 | 73 | 98 | 17 |
| COc1cc(-c2ccc(-c3ccc(N(C)C4CC5CCC(C)(C4)N5)nn3)c(O)c2)cnn1 (single isomer, unassigned; ent2) [310-Ent2] | – | – | 0.01 to 15 | – | – | 16 to 50 | 89 | 80 | 133 |
| COc1cc(-c2ccc(-c3ccc(N(C)[C@@H]4C[C@H]5CCC[C@@](C)(C4)N5)nn3)c(O)c2)cnn1 (single isomer, unassigned; ent1) [311-Ent1] | – | – | 0.01 to 15 | – | – | 16 to 50 | 93 | 96 | 180 |
| CC12CCC(CC(Oc3ccc(-c4ccc(-c5cn[nH]c5)cc4O)nn3)C1)N2 (single isomer, unassigned; ent2) [309-Ent2] | 0.01 to 15 | 0.01 to 15 | 0.01 to 15 | – | – | – | 91 | 86 | 50 |
| CN(c1ccc(-c2ccc(-n3ccnc3)cc2O)nn1)C1CC2CCC(C)(C1)N2 (single isomer, unassigned; ent2) [304-Ent2] | 0.01 to 15 | 0.01 to 15 | 0.01 to 15 | – | – | 0.01 to 15 | 87 | 83 | 109 |
| CN(c1ccc(-c2ccc(-n3ccnc3)cc2O)nn1)[C@@H]1C[C@H]2CC[C@@](C)(C1)N2 (single isomer, unassigned; ent1) [304-Ent1] | 0.01 to 15 | 0.01 to 15 | 0.01 to 15 | – | – | 0.01 to 15 | 94 | 90 | 137 |
| COc1cc(-c2ccc(-c3ccc(N(C)C4CC5CCCC(C)(C4)N5)nn3)c(O)c2)cnn1 (single isomer, unassigned; ent2) [311-Ent2] | – | – | 0.01 to 15 | – | – | 16 to 50 | 84 | 83 | 137 |
| COCC12CCCC(CC(Oc3ccc(-c4ccc(-c5cnn(C)c5)cc4O)nn3)C1)N2 (single isomer, unassigned; ent1) [316-Ent1] | 16 to 50 | 16 to 50 | 0.01 to 15 | 16 to 50 | 51 to 100 | 0.01 to 15 | 84 | 96 | 43 |
| COCC12CCCC(CC(Oc3ccc(-c4ccc(-c5cnn(C)c5)cc4O)nn3)C1)N2 (single isomer, unassigned; ent2) [316-Ent2] | 16 to 50 | 16 to 50 | 16 to 50 | 16 to 50 | 51 to 100 | 0.01 to 15 | 77 | 106 | 40 |
| C[C@]12CC[C@H](C[C@@H](Oc3ccc(-c4ccc(-c5cn[nH]c5)cc4O)nn3)C1)N2 (single isomer, unassigned; ent1) [309-Ent1] | 0.01 to 15 | 0.01 to 15 | 0.01 to 15 | 0.01 to 15 | – | 0.01 to 15 | 93 | 93 | 68 |
| CC12CCC(CC(Oc3ccc(-c4ccc(-n5ccnc5)cc4O)nn3)C1)N2 (single isomer, unassigned; ent2) [303-Ent2] | 0.01 to 15 | 0.01 to 15 | 0.01 to 15 | 16 to 50 | 16 to 50 | 0.01 to 15 | 86 | 88 | 62 |
| COCC12CCC(CC(N(C)c3ccc(-c4cc(F)c(-n5ccnc5)cc4O)nn3)C1)N2 (single isomer, unassigned; ent2) [315-Ent2] | 0.01 to 15 | 0.01 to 15 | 0.01 to 15 | – | – | – | 104 | 107 | 117 |
| CN1[C@@H]2CCC[C@H]1C[C@H](Oc1ccc(-c3ccc(-c4cn[nH]c4)cc3O)nn1)C2 [compound 305] | – | – | 51 to 100 | – | – | 501 to 10000 | – | – | – |
| CN(c1ccc(-c2ccc(-c3cnn(C)c3)cc2O)nn1)C1CC2(C)CCC(N2)C1F (single isomer, unassigned; ent2) [318-Ent2] | – | – | 0.01 to 15 | – | – | 0.01 to 15 | – | – | – |
| COc1cc(-c2ccc(-c3ccc(N(C)[C@@H]4C[C@H]5CC[C@@](C)(C4)N5)nn3)c(O)c2)cnn1 (single isomer, unassigned; ent1) [310-Ent1] | – | – | 0.01 to 15 | – | – | 501 to 10000 | 94 | 89 | 130 |
